Laboratory results reported in US20160170302A1, “NOVEL COMPOUND” (TOKYO OHKA KOGYO CO., LTD., priority 2011, published 2016).

Assay: Solubility to organic solvents PM and AN
Conditions: for Solubility to Solvent AN: solvent: cyclohexanone (AN); for Solubility to Solvent PM: solvent: propylene glycol monomethyl ether acetate (PM)

Row | SMILES | Solubility to Solvent AN [mass %] | Solubility to Solvent PM [mass %]
1 | CCO[Si](C)(CCCN)OCC [Comparative Compound 6, reference compound] | >50 | >50
2 | CCN(CC)C(=O)/C=C/c1ccc(OC)cc1 [Compound 1] | >50 | >50
3 | COc1ccc(/C=C/C(=O)Nc2ccccc2)cc1 [Compound 2] | >50 | >50
4 | COc1ccc(/C=C/C(=O)n2ccnc2)cc1 [Compound 3] | >50 | >50
5 | COc1ccc(/C=C/C(=O)n2ccnc2)cc1[N+](=O)[O-] [Compound 6] | >50 | >50
6 | CCN(CC)C(=O)/C=C/c1ccc(OC)cc1[N+](=O)[O-] [Compound 9] | >50 | >50
7 | CCN(CC)C(=O)/C=C/c1ccc(OC)c([N+](=O)[O-])c1 [Compound 10] | >50 | >50
8 | CCN(CC)C(=O)/C(C)=C/c1ccc(OC)cc1[N+](=O)[O-] [Compound 11] | >50 | >50
9 | CCN(CC)C(=O)/C(C)=C/c1ccc(OC)c([N+](=O)[O-])c1 [Compound 12] | >50 | >50
10 | COc1ccc(/C=C/C(=O)N2CCCCC2)c([N+](=O)[O-])c1 [Compound 13] | >50 | >50
11 | COc1ccc(/C=C/C(=O)N2CCCCC2)cc1[N+](=O)[O-] [Compound 14] | >50 | >50
12 | COc1ccc(/C=C(\C)C(=O)N2CCCCC2)c([N+](=O)[O-])c1 [Compound 15] | >50 | >50
13 | COc1ccc(/C=C(\C)C(=O)N2CCCCC2)cc1[N+](=O)[O-] [Compound 16] | >50 | >50
14 | COc1ccc(/C=C/C(=O)N2CCCCC2)cc1 [Compound 17] | >50 | >50
15 | COc1ccc(/C=C(\C)C(=O)n2ccnc2)cc1 [Compound 18] | >50 | >50
16 | CCN(CC)C(=O)/C(C)=C/c1ccc(OC)cc1 [Compound 19] | >50 | >50
17 | COc1ccc(/C=C(\C)C(=O)Nc2ccccc2)cc1 [Compound 20] | >50 | >50
